Laboratory results reported in the NIST ThermoML archive (doi:10.1016/j.jct.2006.03.006).
± gives the expanded uncertainty stated by the source.

Key:
[1] = Liquid; for mass density: 298.15 K, 101.33 kPa, Pycnometric method
[2] = refractive index (Na D-line) (dimensionless); settings: 298.15 K; 101.33 kPa; Liquid; Standard Abbe refractometry

mass density [1] [kg/m3]	refractive index [2]	SMILES	other results
786.4 ± 4.6	1.3265 ± 0.0012	CO [methanol]	vapor or sublimation pressure ([1]; 336.25 K): 95.5 ± 5 kPa
799.6 ± 4.7	1.3837 ± 0.0012	CCCO [propan-1-ol]	vapor or sublimation pressure ([1]; 368.85 K): 95.5 ± 5 kPa
781.3 ± 4.5	1.3752 ± 0.0012	CC(C)O [propan-2-ol]	vapor or sublimation pressure ([1]; 355.05 K): 95.5 ± 5 kPa

More lines, now with the values behind:

SMILES	mass density [1] [kg/m3]	refractive index [2]	other results
CC(C)CO [2-methyl-1-propanol]	797.8 ± 4.7	1.3939 ± 0.0012	vapor or sublimation pressure ([1]; 379.65 K): 95.5 ± 5 kPa
CC(C)(C)O [2-methylpropan-2-ol]	781.2 ± 4.5	1.3852 ± 0.0012	vapor or sublimation pressure ([1]; 354.15 K): 95.5 ± 5 kPa
Cc1cccc(O)c1 [3-methylphenol]	1030 ± 7.7	1.5395 ± 0.0012	vapor or sublimation pressure ([1]; 473.75 K): 95.5 ± 5 kPa
CCCCO [butan-1-ol]	805.8 ± 4.8	1.3974 ± 0.0012	vapor or sublimation pressure ([1]; 389.35 K): 95.5 ± 5 kPa
CCC(C)O (configuration not stated) [butan-2-ol]	802.4 ± 4.7	1.3953 ± 0.0012	vapor or sublimation pressure ([1]; 371.26 K): 95.5 ± 5 kPa
CCO [ethanol]	784.9 ± 4.5	1.3594 ± 0.0012	vapor or sublimation pressure ([1]; 349.95 K): 95.5 ± 5 kPa
